Test results as given in patent publication US7033580B2, “Hair-growing agent” (priority 1996, dated 2006).
Read-outs that look alike come from different tables or passages of the source.

Tests used:
[1] = tested on: Mouse hair-follicle cells; test: Hair growth promoting effect in mouse hair-follicle cell culture (Neutral Red); type: cell-based; details: for Relative Degree of Cell Growth, vehicled on the degree of cell growth of 100 in Control: 5 days
Description: Mouse hair-follicle cells were cultivated and collected, according to the modified method of the Tanigai et al's method (see Archives of Dermatological Research, 284, 290–296, 1992) while suitably modifying the method.
That is, the skin was peeled from the back of a 4-day age C3H mouse (bought from Nippon Charles River Co.), and processed with an MEM (Minimum Essential Medium, Eagle) containing 500 units/ml Disperse (produced by Godo Shusei Co.) and 5% FCS, at 4° C. for 16 hours.
The epidermis was removed from said skin sample, and the resulting dermis layer was processed with a DMEM (Dulbecco's Modified Eagle Medium) containing 0.25% collagenase N-2 (produced by Nitta Gelatin Co.) and 10% FCS, at 37° C. for 1 hours, to prepare a dermis suspension.
This dermis suspension was filtrated through a 212-micron nylon mesh (produced by Nippon Rikagaku Kikai KK), and the resulting filtrate was centrifuged at 1,000 rpm for 5 minutes to obtain hair-follicle tissue-containing pellets.
The resulting pellets were suspended in a Ca-Mg-free PBS (Dulbecco's Phosphate-Buffered Saline), using a pipette, and then statically left as it was for 15 minutes, whereby the hair-follicle tissue was precipitated.
The thus-obtained hair-follicle tissue was repeatedly processed for a total of three times according to the same process as above comprising the addition of a Ca-Mg-free PBS, the suspension with a pipette, and the precipitation for 15 minutes.
The hair-follicle tissue thus obtained finally was processed with 0.1% EDTA-0.25% trypsin (produced by Gibco Co.) at 37° C. for 5 minutes, to which was then added a DMEM containing 10% FCS. Thus was prepared herein a hair-follicle tissue cell suspension comprising 3×10^5 cells/ml.
This hair-follicle tissue cell suspension was pipetted into a 24-well collagen-coated plate (produced by Iwaki Glass Co.) in an amount of 1 ml/well, and cultivated at 37° C. in 5% CO2 for 24 hours.
The resulting culture was then subjected to medium exchange with an MCDB153 medium (produced by Kyokuto Pharmaceutical Co.) containing 5 mg/liter insulin from bovine (produced by Sigma Co.), 5 μg/liter mouse EGF (produced by Takara Shuzo Co.), 40 mg/liter bovine pituitary extract (produced by Kyokuto Pharmaceutical Co.), 10 mg/liter human transferrin (produced by Sigma Co.), 0.4 mg/liter hydrocortisone (produced by Sigma Co.), 0.63 μg/liter progesterone (produced by Collaborative Research Co.), 14 mg/liter O-phosphoethanolamine (produced by Sigma Co.), 6.1 mg/liter ethanolamine (produced by Sigma Co.), 50 U/ml penicillin (produced by Wako Co.), 50 μg/ml streptomycin (produced by Wako Co.), and an DMSO solution comprising a PKC inhibitor of the invention (this was added in an amount of 1/100 by volume relative to the medium), and then further cultivated at 37° C. in 5% CO2 for 5 days. During the incubation, the medium was exchanged with a fresh one every other day.
As the control, the cell culture was cultivated in the same manner as above, except that only DMSO of 1/100 by volume relative to the medium was added to the medium in place of the PKC inhibitor-containing DMSO solution.
To determine the degree of cell growth, referred to herein was a known method of using Neutral Red (see Journal of Tissue Culture Method, 9, 1, 7–9, 1984). […]
The absorbance of the extract at 540 nm was measured, from which was obtained the degree of growth of the cells.

protein kinase A (PKA) [2] = biological target: protein kinase A (PKA) (Bos taurus, UniProt P00517); test: PKA-inhibiting activity measuring method (Kuo et al.); type: biochemical; details: crude enzyme partially purified from calf heart
Description: (2) Method for Measuring PKA-inhibiting Activity
To measure the PKA-inhibiting activity of a protein kinase inhibitor, referred to is the Kuo et al's method (see Biochemistry, 64, 1349, 1969).
Precisely, 10 μl of a sample to be tested for determining its activity is added to 250 μl of a solution comprising 5 μmols of Tris-HCl buffer (pH 6.8), 2.5 μmols of magnesium acetate, 100 μg of histone Type IIS (produced by Sigma Co.), 0.25 nmols of c-AMP and 200 μg of a crude enzyme (as partially purified from a calf heart according to the Kuo et al's method), and incubated therein at 30° C. for 3 minutes.
After the completion of the incubation, 1.25 nmols of [g-^32P]ATP (from 5×10^3 to 10×10^3 cpm/nmol) is added to the system, and phosphorylation reaction is carried out at 30° C. for 3 minutes, and thereafter the reaction is terminated by adding 25% trichloroacetic acid thereto.
The resulting reaction mixture is filtrated through a cellulose acetate membrane (pore size: 0.45 μm) (produced by Toyo Filter Co.), and the membrane is washed four times with 5% trichloroacetic acid, and thereafter the radioactivity of the residue remained on the membrane is measured to be a value of the sample.
On the other hand, the same process as described above is repeated without adding the sample to the system, and the radioactivity is obtained to be a control value.

protein kinase C (PKC) [3] = test: PKC-inhibiting activity measuring method (Kikkawa et al.); type: biochemical, rat; details: ratio, selectivity PKC over PKA
Description: (§1) (1) Method for Measuring PKC-inhibiting Activity
(§2) Precisely, 10 μl of a sample to be tested for determining its activity is added to 250 μl of a solution comprising 2.5 μmols of magnesium acetate, 50 μg of histone Type IIIS (produced by Sigma Co.), 20 μg of phosphatidylserine, 0.8 μg of diolein, 25 μmols of calcium chloride, 5 μg of a crude enzyme (as partially purified from a rat brain according to the Kikkawa et al's method) and 5 μmols of Tris-HCl buffer (pH 7.5), and incubated therein at 30° C. for 3 minutes.

protein kinase C (PKC) [4] = biological target: T1, protein kinase C (PKC); test: as above; type: biochemical, rat; details: crude enzyme partially purified from rat brain
T1 construct: PKC-IC50; other: crude enzyme partially purified from rat brain
Description: as §1, §2

[5] = tested on: hair-follicle organ culture; details: British Journal of Dermatology, 133, 5, 686–693, 1995; cited from earlier work
protein kinase A (PKA) [6] = details: Excerpt from BIO/TECHNOLOGY, 8, 732, 1990; cited from earlier work
protein kinase C (PKC) [7] = details: Excerpt from BIO/TECHNOLOGY, 8, 732, 1990, cited from earlier work

Compound | Relative Degree of Cell Growth, vehicled on the degree of cell growth of 100 in Control ([1]; Concentration 10 μM) | IC50 (protein kinase A (PKA) [2]) | PKA-IC50/PKC-IC50 (protein kinase C (PKC) [3]) | IC50 (protein kinase C (PKC) [4]) | IC50 (protein kinase A (PKA) [6]) | effect on growth of mouse hair-follicle cells (in words) [1] | other results
CCCCCCCCCCCCCCCC(=O)OC(CC(=O)O)C[N+](C)(C)C.[Cl-] (racemic) [Palmitoyl-DL-carnitine Hydrochloride, palmitoyl-DL-carnitine hydrochloride] | 170 | > 300 µM | >3 | 100 µM |  |  | 
CC1CNCCN1S(=O)(=O)c1cccc2cnccc12 (stereo not shown) [Composition H-7, 1-(5-Isoquinolinylsulfonyl)-2-methylpiperazine] |  |  |  |  | 13 µM |  | effect on hair growth retardation by 12-O-tetragalloyl-phorbol-13-acetate (in words) [5]: release the hair growth-retarding activity; IC50 (protein kinase C (PKC) [7]): 15 µM; PKA-IC50/PKC-IC50 (protein kinase C (PKC) [7]; ratio): 0.87
COC(=O)[C@@]1(O)C[C@H]2O[C@]1(C)n1c3ccccc3c3c4c(c5c6ccccc6n2c5c31)C(=O)NC4 [Composition K252a] |  |  |  |  | 0.02 µM | inhibited the growth of mouse hair-follicle cells | 
CN[C@@H]1C[C@H]2O[C@@](C)([C@@H]1OC)n1c3ccccc3c3c4c(c5c6ccccc6n2c5c31)C(=O)NC4 [Staurosporine] |  |  |  |  |  | inhibited the growth of mouse hair-follicle cells | 
calphostin C |  | > 50 µM | >1000 | 0.05 µM |  |  | Relative Degree of Cell Growth, vehicled on the degree of cell growth of 100 in Control ([1]; Concentration 0.1 μM): 160
polymyxin B sulfate | 360 | > 100 µM | >10 | 10 µM |  |  | 
